Laboratory results from article PMC10454678, “Synthesis of hydroxy benzoin/benzil analogs and investigation of their antioxidant, antimicrobial, enzyme inhibition, and cytotoxic activities” (Turkish Journal of Chemistry, 2021).
Values after ≈ are worked out from the molar mass of the structure shown. Like-named read-outs stand apart in the source and are kept apart here.

Experiments:
[1] = tested on: Escherichia coli ATCC 25922; test: MIC, microdilution, E. coli; assay type: cell-based; details: Escherichia coli
[2] = tested on: Yersinia pseudotuberculosis ATCC911; test: microbe, parasite or virus in culture; assay type: cell-based; details: Yersinia pseudotuberculosis, ATCC911, read-out: MIC Yp
[3] = tested on: Pseudomonas aeruginosa ATCC27853; test: MIC, microdilution, P. aeruginosa; assay type: cell-based; details: Pseudomonas aeruginosa, ATCC27853; Gram (-); Mueller-Hinton broth, 18-24 h, 36 °C; read-out: MIC Pa
[4] = tested on: Staphylococcus aureus ATCC25923; test: MIC, microdilution, S. aureus; assay type: cell-based; details: Staphylococcus aureus
[5] = tested on: Enterococcus faecalis ATCC29212; test: MIC, microdilution, E. faecalis; assay type: cell-based; details: Enterococcus faecalis, ATCC29212; Gram (+); Mueller-Hinton broth, 18-24 h, 36 °C; read-out: MIC Ef
[6] = DPPH radical scavenging activity; details: 0.1 mM DPPH, 50 min dark, 517 nm
Bacillus cereus Roma709 = test: MIC, microdilution, B. cereus; assay type: cell-based; details: Bacillus cereus
[7] = tested on: Mycobacterium smegmatis ATCC607; test: MIC, microdilution, M. smegmatis; assay type: cell-based; details: for MIC: Mycolicibacterium smegmatis, ATCC607, 72 h
[8] = tested on: Candida albicans ATCC60193; test: MIC, microdilution, C. albicans; assay type: cell-based; details: Candida albicans, ATCC60193; fungus; YEPD broth, 48 h, 36 °C; read-out: MIC Ca
acetylcholinesterase = acetylcholinesterase (Homo sapiens, UniProt P22303); test: biochemical; details: Tris-HCl pH 8.0, 25 °C, 405 nm; read-out: AChE IC50 (converted)
butyrylcholinesterase = butyrylcholinesterase (Homo sapiens, UniProt P06276); test: biochemical; details: Tris-HCl pH 8.0, 25 °C, 405 nm; read-out: BChE IC50 (converted)
α-glucosidase = test: α-Glucosidase inhibition; assay type: biochemical; details: PNPG, pH 6.8, 37 °C, 400 nm
Procedure: It was incubated at 37 °C for 15 min. Similarly, an enzyme-free blank was prepared. The reaction was stopped when sodium carbonate (50 μL, 0.2 M) was added.

[9] = Copper ions reducing activity (CUPRAC); details: Trolox equivalents; 30 min dark, room temperature, 450 nm
[10] = Ferric reducing antioxidant power (FRAP) assay; details: Trolox equivalents; compounds 2 mg/mL, 30 °C 30 min, 595 nm
[11] = ATCC25922, Gram (-), Mueller-Hinton broth, 18-24 h, 36 °C, read-out: MIC Ec
[12] = ATCC25923, Gram (+), Mueller-Hinton broth, 18-24 h, 36 °C, read-out: MIC Sa
[13] = Tub., BHI broth, 36 °C, read-out: MIC Ms

acetylcholinesterase, sequence (P22303 32-614, species assumed): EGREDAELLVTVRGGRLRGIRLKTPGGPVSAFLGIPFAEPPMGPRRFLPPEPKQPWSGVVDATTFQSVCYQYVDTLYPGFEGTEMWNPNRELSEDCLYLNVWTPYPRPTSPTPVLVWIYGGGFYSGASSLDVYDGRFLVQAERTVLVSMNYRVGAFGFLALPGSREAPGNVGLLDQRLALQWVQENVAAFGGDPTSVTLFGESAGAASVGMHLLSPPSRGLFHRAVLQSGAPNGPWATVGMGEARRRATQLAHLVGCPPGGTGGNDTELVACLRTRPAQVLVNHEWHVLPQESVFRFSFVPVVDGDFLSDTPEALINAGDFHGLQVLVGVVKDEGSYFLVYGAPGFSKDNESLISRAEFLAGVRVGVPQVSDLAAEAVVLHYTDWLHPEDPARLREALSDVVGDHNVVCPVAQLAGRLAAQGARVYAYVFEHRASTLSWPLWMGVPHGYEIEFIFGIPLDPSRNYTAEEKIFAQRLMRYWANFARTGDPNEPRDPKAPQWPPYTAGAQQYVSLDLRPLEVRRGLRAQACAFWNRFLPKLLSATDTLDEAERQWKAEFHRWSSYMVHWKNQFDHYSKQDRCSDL
butyrylcholinesterase, sequence (P06276 29-602): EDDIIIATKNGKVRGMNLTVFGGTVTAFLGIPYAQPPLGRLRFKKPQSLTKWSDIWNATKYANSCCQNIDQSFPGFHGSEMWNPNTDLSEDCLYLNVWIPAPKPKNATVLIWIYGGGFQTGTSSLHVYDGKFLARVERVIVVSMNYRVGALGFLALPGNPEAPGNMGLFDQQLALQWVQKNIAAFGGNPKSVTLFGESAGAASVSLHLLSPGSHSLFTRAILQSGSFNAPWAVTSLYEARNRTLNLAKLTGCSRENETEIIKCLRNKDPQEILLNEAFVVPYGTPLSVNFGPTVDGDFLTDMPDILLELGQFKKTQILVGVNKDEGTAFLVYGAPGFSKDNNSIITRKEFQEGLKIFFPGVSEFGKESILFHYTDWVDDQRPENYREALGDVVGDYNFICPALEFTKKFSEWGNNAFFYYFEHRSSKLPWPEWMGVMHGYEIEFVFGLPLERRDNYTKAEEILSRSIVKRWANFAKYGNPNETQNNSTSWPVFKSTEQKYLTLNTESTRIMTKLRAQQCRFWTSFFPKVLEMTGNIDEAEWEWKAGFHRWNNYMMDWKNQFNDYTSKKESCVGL

CC1(C)S[C@@H]2[C@H](NC(=O)[C@H](N)c3ccccc3)C(=O)N2[C@H]1C(=O)O [Amp., Ampicillin, reference compound]
MIC [1, 11]: 10 µg/mL (≈ 28.6 µM) | MIC [2]: 18 µg/mL (≈ 51.5 µM) | MIC [3]: > 128 µg/mL | MIC [4, 12]: 35 µg/mL (≈ 100 µM) | MIC [5]: 10 µg/mL (≈ 28.6 µM)

Cc1cc(C(C)(C)C)c(O)c(C(C)(C)C)c1 [BHT, di-t-butylhydroxytoluene, reference compound]
DPPH radical scavenging capacity (SC50) [6]: 6.47 ± 0.12 mg/mL

O=C(c1cccc(O)c1)C(O)c1ccccc1 (stereo not shown) [Compound 1, 2-Hydroxy-1-(3-hydroxyphenyl)-2-phenylethanone]
MIC [1, 11]: 330 µg/mL (≈ 1450 µM) | MIC [2]: 1320 µg/mL (≈ 5780 µM) | MIC (Bacillus cereus Roma709; ROMA709, read-out: MIC Bc): 1320 µg/mL (≈ 5780 µM) | MIC [7, 13]: 165 µg/mL (≈ 723 µM) | MIC [8]: 330 µg/mL (≈ 1450 µM) | IC50 (acetylcholinesterase): > 4380 µM | IC50 (butyrylcholinesterase): 1890 µM | α-Glucosidase IC50 (α-glucosidase): 58.16 µg/mL | DPPH radical scavenging capacity (SC50) [6]: 15.21 ± 2.1 mg/mL | CUPRAC, copper reducing antioxidant power [9]: 738.33 ± 12.5 μg/mL trolox/gram DW | FRAP, the iron reducing antioxidant power [10]: 1238 ± 34.7 μg/mL trolox/gram DW

O=C(c1cc(O)cc(O)c1)C(O)c1cc(O)cc(O)c1 (stereo not shown) [Compound 7, 1,2-Bis(3,5-dihydroxyphenyl)-2-hydroxyethanone]
MIC ([1]; ATCC25922, read-out: MIC Ec): 141 µg/mL (≈ 510 µM) | MIC [2]: 1140 µg/mL (≈ 4110 µM) | MIC [3]: 283 µg/mL (≈ 1020 µM) | MIC ([4]; ATCC25923, read-out: MIC Sa): 283 µg/mL (≈ 1020 µM) | MIC [5]: 141 µg/mL (≈ 510 µM) | MIC (Bacillus cereus Roma709; ROMA709, read-out: MIC Bc): 141 µg/mL (≈ 510 µM) | MIC [7, 13]: 70 µg/mL (≈ 253 µM) | MIC [8]: 283 µg/mL (≈ 1020 µM) | IC50 (acetylcholinesterase): 443 µM | IC50 (butyrylcholinesterase): > 3620 µM | α-Glucosidase IC50 (α-glucosidase): >1000 µg/mL | DPPH radical scavenging capacity (SC50) [6]: 10.85 ± 0.7 mg/mL | CUPRAC, copper reducing antioxidant power [9]: 95.00 ± 2.4 μg/mL trolox/gram DW | FRAP, the iron reducing antioxidant power [10]: 1715 ± 96.8 μg/mL trolox/gram DW

O=C(C(=O)c1cc(O)cc(O)c1)c1ccccc1 [Compound 10, 1-(3,5-Dihydroxyphenyl)-2-phenylethane-1,2-dione]
MIC [1, 11]: 17 µg/mL (≈ 70.2 µM) | MIC [2]: 65 µg/mL (≈ 268 µM) | MIC [3]: 32 µg/mL (≈ 132 µM) | MIC [4, 12]: 65 µg/mL (≈ 268 µM) | MIC (Bacillus cereus Roma709; ROMA709, Gram (+), Mueller-Hinton broth, 18-24 h, 36 °C, read-out: MIC Bc): 17 µg/mL (≈ 70.2 µM) | MIC [7, 13]: 9 to 18 µg/mL (≈ 37.2 to 74.3 µM) | MIC Ms ([7]; Tub., BHI broth, 72 h, 36 °C): 17 µg/mL (≈ 70.2 µM) | MIC [8]: 17 µg/mL (≈ 70.2 µM) | IC50 (acetylcholinesterase): 161 µM | IC50 (butyrylcholinesterase): > 4130 µM | α-Glucosidase IC50 (α-glucosidase): 100.08 µg/mL | DPPH radical scavenging capacity (SC50) [6]: 52.10 ± 0.4 mg/mL | CUPRAC, copper reducing antioxidant power [9]: 455.00 ± 10.1 μg/mL trolox/gram DW | FRAP, the iron reducing antioxidant power [10]: 1830 ± 44.8 μg/mL trolox/gram DW

O=C(C(=O)c1cc(O)cc(O)c1)c1cc(O)cc(O)c1 [Compound 14, 1,2-Bis(3,5-dihydroxyphenyl)ethane-1,2-dione]
MIC ([1]; ATCC25922, read-out: MIC Ec): 102 µg/mL (≈ 372 µM) | MIC [2]: 102 µg/mL (≈ 372 µM) | MIC [3]: 51 µg/mL (≈ 186 µM) | MIC [5]: 51 µg/mL (≈ 186 µM) | MIC (Bacillus cereus Roma709; ROMA709, read-out: MIC Bc): 102 µg/mL (≈ 372 µM) | MIC [7, 13]: 51 µg/mL (≈ 186 µM) | MIC [8]: 51 µg/mL (≈ 186 µM) | IC50 (acetylcholinesterase): 257 µM | IC50 (butyrylcholinesterase): > 3650 µM | α-Glucosidase IC50 (α-glucosidase): 87.10 µg/mL | DPPH radical scavenging capacity (SC50) [6]: 7.38 ± 1.0 mg/mL | CUPRAC, copper reducing antioxidant power [9]: 133.33 ± 10.9 μg/mL trolox/gram DW | FRAP, the iron reducing antioxidant power [10]: 1974 ± 76.9 μg/mL trolox/gram DW

O=C(c1cccc(OC2O[C@H](CO)[C@@H](O)[C@H](O)[C@H]2O)c1)C(O)c1ccccc1 (stereo partly drawn) [Compound 15, 2-Hydroxy-1-(3-O-β -D-glucopyranosylphenyl)-2-phenylethanone]
MIC [8]: 25 µg/mL (≈ 64 µM) | IC50 (acetylcholinesterase): 30.7 µM | IC50 (butyrylcholinesterase): > 2560 µM | α-Glucosidase IC50 (α-glucosidase): >1000 µg/mL | CUPRAC, copper reducing antioxidant power [9]: 141.74 ±28.35 μg/mL trolox/gram DW | FRAP, the iron reducing antioxidant power [10]: 2311.04 ± 31.21 μg/mL trolox/gram DW

O=C(c1ccc(OC2O[C@H](CO)[C@@H](O)[C@H](O)[C@H]2O)cc1)C(O)c1ccccc1 (stereo partly drawn) [Compound 16, 2-Hydroxy-1-(4-O-β -D-glucopyranosylphenyl)-2-phenylethanone]
IC50 (acetylcholinesterase): 399 µM | IC50 (butyrylcholinesterase): 484 µM | α-Glucosidase IC50 (α-glucosidase): >1000 µg/mL | DPPH radical scavenging capacity (SC50) [6]: 44.75 ± 3.04 mg/mL | CUPRAC, copper reducing antioxidant power [9]: 73.54 ± 17.36 μg/mL trolox/gram DW | FRAP, the iron reducing antioxidant power [10]: 1956.25 ± 48.13 μg/mL trolox/gram DW

O=C(c1cc(OC2O[C@H](CO)[C@@H](O)[C@H](O)[C@H]2O)cc(OC2O[C@H](CO)[C@@H](O)[C@H](O)[C@H]2O)c1)C(O)c1ccccc1 (stereo partly drawn) [Compound 17, 2-Hydroxy-1-(3,5-Di-O-β -D-glucopyranosylphenyl)-2-phenylethanone]
IC50 (acetylcholinesterase): > 1760 µM | IC50 (butyrylcholinesterase): > 1760 µM | α-Glucosidase IC50 (α-glucosidase): 193.40 µg/mL | DPPH radical scavenging capacity (SC50) [6]: 8.22 ± 1.08 mg/mL | CUPRAC, copper reducing antioxidant power [9]: 287.40 ± 9.81 μg/mL trolox/gram DW | FRAP, the iron reducing antioxidant power [10]: 2647.92 ± 31.92 μg/mL trolox/gram DW

O=C(c1ccc(OC2O[C@H](CO)[C@@H](O)[C@H](O)[C@H]2O)cc1)C(O)c1cccc(OC2O[C@H](CO)[C@@H](O)[C@H](O)[C@H]2O)c1 (stereo partly drawn) [Compound 19, 2-Hydroxy-1-(4-O-β -D-glucopyranosylphenyl)-2-(3-O-β -D-glucopyranosyl-phenyl)ethanone]
IC50 (acetylcholinesterase): 18.5 µM | IC50 (butyrylcholinesterase): > 1760 µM | α-Glucosidase IC50 (α-glucosidase): 124.94 µg/mL | DPPH radical scavenging capacity (SC50) [6]: 8.86 ± 0.37 mg/mL | CUPRAC, copper reducing antioxidant power [9]: 421.74 ± 24.39 μg/mL trolox/gram DW | FRAP, the iron reducing antioxidant power [10]: 2612.50 ± 37.04 μg/mL trolox/gram DW

O=C(c1cc(OC2O[C@H](CO)[C@@H](O)[C@H](O)[C@H]2O)cc(OC2O[C@H](CO)[C@@H](O)[C@H](O)[C@H]2O)c1)C(O)c1cccc(OC2O[C@H](CO)[C@@H](O)[C@H](O)[C@H]2O)c1 (stereo partly drawn) [Compound 20, 2-Hydroxy-1-(3,5-di-O-β -D-glucopyranosylphenyl)-2-(3-O-β -D-glucopyranosylphenyl)ethanone]
IC50 (acetylcholinesterase): > 1340 µM | IC50 (butyrylcholinesterase): 254 µM | α-Glucosidase IC50 (α-glucosidase): 48.25 µg/mL | DPPH radical scavenging capacity (SC50) [6]: 7.78 ± 0.12 mg/mL | CUPRAC, copper reducing antioxidant power [9]: 775.58±12.34 μg/mL trolox/gram DW | FRAP, the iron reducing antioxidant power [10]: 2918.75±36.14 μg/mL trolox/gram DW

O=C(C(=O)c1cc(OC2O[C@H](CO)[C@@H](O)[C@H](O)[C@H]2O)cc(OC2O[C@H](CO)[C@@H](O)[C@H](O)[C@H]2O)c1)c1ccccc1 (stereo partly drawn) [Compound 23, 1-(3,5-Di-O-β -D-glucopyranosylphenyl)-2-phenylethane-1,2-dione]
IC50 (acetylcholinesterase): 124 µM | IC50 (butyrylcholinesterase): > 1770 µM | α-Glucosidase IC50 (α-glucosidase): >1000 µg/mL | DPPH radical scavenging capacity (SC50) [6]: 17.74 ± 0.35 mg/mL | CUPRAC, copper reducing antioxidant power [9]: 273.67 ± 27.23 μg/mL trolox/gram DW | FRAP, the iron reducing antioxidant power [10]: 2267.50 ± 24.14 μg/mL trolox/gram DW

O=C(C(=O)c1cccc(OC2O[C@H](CO)[C@@H](O)[C@H](O)[C@H]2O)c1)c1cccc(O)c1 (stereo partly drawn) [Compound 24, 1-(3-O-β -D-Glucopyranosylphenyl)-2-(3-hydroxyphenyl)ethane-1,2-dione]
MIC ([7]; read-out: MIC Ms, Tub., BHI broth, 36 °C): 15 µg/mL (≈ 37.1 µM) | IC50 (acetylcholinesterase): 697 µM | IC50 (butyrylcholinesterase): 526 µM | α-Glucosidase IC50 (α-glucosidase): 58.90 µg/mL | DPPH radical scavenging capacity (SC50) [6]: 25.40 ± 0.19 mg/mL | CUPRAC, copper reducing antioxidant power [9]: 251.46 ± 43.08 μg/mL trolox/gram DW | FRAP, the iron reducing antioxidant power [10]: 2401.25 ± 56.34 μg/mL trolox/gram DW

OC(Cn1cncn1)(Cn1cncn1)c1ccc(F)cc1F [Flu., Fluconazole, reference compound]
MIC [8]: < 8 µg/mL

[H]/N=C(/N)N[C@H]1[C@H](O)[C@@H](O)[C@H](O[C@@H]2O[C@@H](C)[C@](O)(C=O)[C@H]2O[C@@H]2O[C@@H](CO)[C@H](O)[C@@H](O)[C@@H]2NC)[C@@H](N/C(N)=N\[H])[C@@H]1O [Strep., Streptomycin, reference compound]
MIC [7, 13]: 4 µg/mL (≈ 6.88 µM)
